Data on one substance can be found in patent US20220296680A1, “TREATMENT AND PREVENTION OF CARDIORENAL DAMAGE” (Oslo Universitetssykehus HF, priority 2021, published 2022).

The test system of data set [1] is ZSF1-Ob rats. Briefly: Interventional study in pre-HFpEF ZSF1-Ob rats (obesity, diabetes, hypertension, diastolic dysfunction). Type of data set: in vivo, rat. The procedure:
A hybrid rat that was a cross between a ZDF female and an SHHF male was utilized.
Briefly, we performed an interventional study in pre-HFpEF rats (15 weeks old) affected by obesity, diabetes, hypertension, diastolic dysfunction, and administered either vehicle, VASTIRAS™ (proANP31-67; VAS; 50 ng/Kg/day administered subcutaneously via Alzet osmotic pump), ENTRESTO™ (ENT; 68 mg/Kg/day administered orally via gavage), or VAS+ENT (VAS/ENT).

Data set [2] relates to prostaglandin E2 (PGE2) formation in the kidney. Conditions: Chiou & Vesely 1995; cited from earlier work.
Data set [3] has as its system ischemia-induced acute tubular necrosis and renal failure. Conditions: Recombinant proANP31-67; Clark et al. 2000; cited from earlier work.
Data set [4] concerns patients with congestive heart failure. Conditions: Delacroix et al. 2016; cited from earlier work.
The test system of data set [5] is neprilysin and other endopeptidases. Conditions: cited from earlier work.
The conditions of data set [6]: in vivo; cited from earlier work.
Setting [7] is: ZSF1-Ob rats, autopsy, VAS 50 ng/Kg/day sc, ENT 68 mg/Kg/day oral, FIGS. 3-4.
Setting [8] is: ZSF1-Ob rats, cardiac ultrasound.

Take “proANP31-67 (EVVPPQVLSEPNEEAGAALSPLPEVPPWTGEVSPAQR) [VAS]”: the Elevated blood pressure entry in data set [1] (ZSF1-Ob rats treated from 15 weeks old, assessed at 25 weeks-old, VAS 50 ng/Kg/day sc, ENT 68 mg/Kg/day oral gavage, FIGS. 5-6) is listed as “not affected”. In addition, in data set [1] (setting [7]), the “atria weight (AW)/TL” value was “tended to decrease”, the “body weight (BW)” value was “tended to decrease”, the “heart weight (HW)/tibia length (TL)” value was “tended to decrease” and the “kidney weight (KW)/TL” value is recorded as “tended to decrease”. In addition, in data set [1] (setting [8]), the cardiac output result is “improved” and the “global longitudinal strain (GLS)” value is recorded as “tended to increase”. In data set [1] (ZSF1-Ob rats, renal ultrasound, FIGS. 7-13), the renal vascularity entry is “preserved”. The “prostaglandin E2 (PGE2) formation in the kidney” value in data set [2] was “stimulate”. Moreover, the “ischemia-induced acute tubular necrosis and renal failure” value in data set [3] was “protect”. Further, the “treatment for renal impairment in patients with congestive heart failure” value in data set [4] was “safe and effective”. Also, the “degradation by neprilysin and other endopeptidases” value in data set [5] was “resistant”. Further, the excretion in urine result in data set [6] is listed as “excreted largely intact”.
